Tests used:
Assay type in all cases: in vivo
[1] = system: Amaranthus retroflexus (AMARE); assay: B. Herbicidal post-emergence efficacy, AMARE
How it was run: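 Weeds grown in sandy loam in greenhouse and sprayed at the one-leaf stage, 2–3 weeks after sowing, with WP or EC formulations plus 0.5% additive at 600 L/ha water. Injury rated visually versus untreated controls after about 3 weeks (100% = dead, 0% = like control); rates up to 1280 g/ha.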

[2] = system: Alopecurus myosuroides (ALOMY); assay: C. Herbicidal pre-emergence efficacy, ALOMY; settings: 320 g/ha, scored after about 3 weeks
Excerpt: Seeds of monocotyledonous and dicotyledonous weed plants and crop plants were placed in plastic or organic planting pots and covered with soil. The compounds of the invention, formulated in the form of wettable powders (WP) or as emulsion concentrates (EC), were then applied to the surface of the covering soil as aqueous suspension or emulsion with addition of 0.5% additive at a water application rate equivalent to 600 l/ha (converted). After the treatment, the pots were placed in a greenhouse and kept under good growth conditions for the test plants. After about 3 weeks, the efficacy of the preparations was scored visually in comparison with untreated controls as percentages. For example, • 100% efficacy=plants have died, • 0% efficacy=like untreated control plants.
Tables C1a to C14b below show the effects of selected compounds of the general formula (I) according to table 1 on various harmful plants at an application rate corresponding to 320 g/ha or less, which were obtained by the experimental procedure mentioned above.

[3] = system: Setaria viridis (SETVI); assay: A. Herbicidal pre-emergence efficacy, SETVI
How it was run: (§1)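 Pre-emergence soil-surface spray in sandy loam pots, WP/EC in water plus 0.5% additive, 600 L/ha. Visual % damage rating after about 3 weeks in greenhouse vs. untreated; 0% = control-like, 100% = dead plants. Rates up to 1280 g/ha.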

[4] = system: Lolium rigidum (LOLRI); assay: A. Herbicidal pre-emergence efficacy, LOLRI
How it was run: as §1

[5] = system: Amaranthus retroflexus (AMARE); assay: C. Herbicidal pre-emergence efficacy, AMARE; settings: scored after about 3 weeks
How it was run: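 Pre-emergence test: formulated compounds sprayed as aqueous suspension or emulsion with 0.5% additive at 600 l/ha onto soil covering sown seeds, at rates corresponding to 320 g/ha or less. After about 3 weeks in greenhouse, efficacy scored visually as percent versus untreated controls (100% = plants dead).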

[6] = system: Abutilon theophrasti (ABUTH); assay: A. Herbicidal pre-emergence efficacy, ABUTH; settings: scored visually after about 3 weeks vs untreated controls
How it was run: as §1

[7] = system: Amaranthus retroflexus (AMARE); assay: A. Herbicidal pre-emergence efficacy, AMARE
How it was run: as §1

[8] = system: Viola tricolor (VIOTR); assay: E. Herbicidal post-emergence efficacy, VIOTR
How it was run: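 Greenhouse weeds were treated post-emergence at the one-leaf stage, 2-3 weeks after sowing in sandy loam, with WP or EC formulations sprayed as aqueous suspension/emulsion plus 0.5% additive at 600 l/ha, at 320 g/ha or less. Efficacy was rated visually after about 3 weeks versus untreated controls (100% = dead, 0% = like control).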

| Compound | Post-emergence efficacy against AMARE ([1]; 80 g/ha) [%] | Post-emergence efficacy against AMARE ([1]; 320 g/ha) [%] | Post-emergence efficacy against AMARE ([1]; 1280 g/ha) [%] | Pre-emergence efficacy against ALOMY [2] [%] | Pre-emergence efficacy against SETVI ([3]; dosage 80 g/ha) [%] | Pre-emergence efficacy against SETVI ([3]; dosage 320 g/ha) [%] | Pre-emergence efficacy against SETVI ([3]; dosage 1280 g/ha) [%] | Pre-emergence efficacy against LOLRI ([4]; dosage 320 g/ha) [%] | Pre-emergence efficacy against LOLRI ([4]; dosage 1280 g/ha) [%] | Pre-emergence efficacy against AMARE ([5]; 80 g/ha) [%] | Pre-emergence efficacy against AMARE ([5]; 320 g/ha) [%] | Pre-emergence efficacy against ABUTH ([6]; 80 g/ha) [%] | Pre-emergence efficacy against ABUTH ([6]; 320 g/ha) [%] | Pre-emergence efficacy against ABUTH ([6]; 1280 g/ha) [%] | Pre-emergence efficacy against AMARE in % ([7]; 80 g/ha) [%] | Pre-emergence efficacy against AMARE in % ([7]; 320 g/ha) [%] | Pre-emergence efficacy against AMARE in % ([7]; 1280 g/ha) [%] | Post-emergence efficacy against VIOTR in % ([8]; application rate 320 g/ha) [%] | Post-emergence efficacy against VIOTR in % ([8]; application rate 80 g/ha) [%] |
| --- | --- | --- | --- | --- | --- | --- | --- | --- | --- | --- | --- | --- | --- | --- | --- | --- | --- | --- | --- |
| CCCS(=O)(=O)Oc1ccccc1Oc1ncc(Cl)cn1 [Example I-3] | 90 | 100 | 100 | 100 | 100 | 100 | 100 | 100 | 100 | 100 | 100 | 100 | 100 | 100 | 100 | 100 | 100 |  |  |
| Cc1cccc(OS(=O)(=O)CCCCl)c1Oc1ncc(Cl)cn1 [Example I-12] |  | 90 | 100 |  |  | 100 | 100 |  | 90 | 100 | 100 | 90 | 90 | 100 | 100 | 100 | 100 | 80 |  |
| O=S(=O)(CCCCl)Oc1cccc(F)c1Oc1ncc(Cl)cn1 [Example I-13] |  | 90 | 100 |  |  |  | 100 |  | 90 |  | 100 |  | 90 | 100 |  |  | 100 |  |  |
| CCS(=O)(=O)Oc1ccccc1Oc1ncc(Cl)cn1 [Example I-16] | 100 | 100 | 100 |  |  | 100 | 100 |  | 90 |  |  |  | 100 | 100 | 100 | 100 | 100 |  |  |
| CCCCCS(=O)(=O)Oc1ccccc1Oc1ncc(Cl)cn1 [Example I-24] | 90 | 100 | 100 |  |  | 100 | 100 |  | 100 | 100 | 100 |  |  |  | 90 | 100 | 100 | 80 |  |
| CC(C)CCS(=O)(=O)Oc1ccccc1Oc1ncc(Cl)cn1 [Example I-25] | 90 | 100 | 100 | 80 |  | 100 | 100 | 90 | 100 | 100 | 100 |  |  | 100 | 90 | 100 | 100 |  |  |
| Cc1cccc(Oc2ncc(Cl)cn2)c1OS(=O)(=O)CCCC(F)(F)F [Example I-28, 2-[(5-Chloropyrimidin-2-yl)oxy]-6-methylphenyl 4,4,4-trifluorobutane-1-sulfonate] |  | 90 | 100 |  | 100 | 100 | 100 | 90 | 100 |  |  | 100 | 100 | 100 | 100 | 100 | 100 |  |  |
| O=S(=O)(CCCC(F)(F)F)Oc1c(Br)cccc1Oc1ncc(Cl)cn1 [Example I-30] | 100 | 100 | 100 |  | 90 | 100 | 100 | 90 | 100 |  |  |  | 90 | 100 | 100 | 100 | 100 |  |  |
| O=S(=O)(CCC(F)(F)F)Oc1c(Br)cccc1Oc1ncc(Cl)cn1 [Example I-31] | 100 | 100 | 100 |  |  | 100 | 100 |  | 100 |  |  |  | 90 | 90 | 100 | 100 | 100 |  |  |
| C=CCS(=O)(=O)Oc1ccccc1Oc1ncc(Cl)cn1 [Example I-36] |  | 90 | 100 |  |  |  | 100 |  | 100 |  | 100 |  | 100 | 100 |  | 100 | 100 |  |  |
| O=S(=O)(CCC(F)(F)F)Oc1c(Br)cccc1Oc1ncc(F)cn1 [Example I-43] |  |  |  |  |  | 100 | 100 | 100 | 100 | 100 | 100 |  | 100 | 100 | 100 | 100 | 100 | 100 | 90 |
| O=S(=O)(CCC1CC1)Oc1c(F)cccc1Oc1ncc(Cl)cn1 [Example I-55] | 90 | 90 | 90 |  | 100 | 100 | 100 |  | 100 | 100 | 100 |  |  | 100 | 100 | 100 | 100 | 80 |  |
| O=S(=O)(CCC(F)=C(F)F)Oc1c(F)cccc1Oc1ncc(Cl)cn1 [Example I-70] |  |  |  | 100 |  |  |  |  |  | 100 | 100 |  |  |  |  |  |  | 100 | 100 |
| O=S(=O)(CCC(F)=C(F)F)Oc1c(Cl)cccc1Oc1ncc(Cl)cn1 [Example I-73] | 100 | 100 | 100 |  |  | 90 | 100 |  | 90 | 90 | 100 |  |  | 90 | 90 | 100 | 100 | 100 | 90 |
| Cc1cccc(Oc2ncc(Cl)cn2)c1OS(=O)(=O)CC1CC(F)(F)C1 [Example I-74] | 100 | 100 | 100 |  |  | 90 | 100 |  | 100 | 90 | 100 |  |  | 90 | 90 | 100 | 100 | 100 | 100 |
| N#Cc1cccc(Oc2ncc(Cl)cn2)c1OS(=O)(=O)CCCC(F)(F)F [Example I-81] |  |  |  | 90 |  |  |  |  |  | 100 | 100 |  |  |  |  |  |  | 100 | 100 |
